By Cmax is commonly meant the maximum level reached in the sampled fluid or tissue. The term clearance denotes the volume of plasma or blood freed of the substance per unit of time. A low value points to a low capacity for elimination. The term IC50 denotes the concentration at which inhibition is half-maximal. Usually half-life stands for the time in which the quantity being followed falls by half. Read a high half-life as slow decline. One may read the inhibition in vivo as the change of the read-out against control, counted positive when it falls. Read a low inhibition in vivo as a weak effect.

Data set [1] can be described thus: Cmax in rat at 10 mg/kg, po. Type of data set: ADME, organism-based. Details: dose 10 mg/kg, route oral. The conditions noted are these: in vivo.
A short description of data set [2]: Oral bioavailability in rat at 10 mg/kg. The conditions noted are these: in vivo. Type of data set: ADME, organism-based.
Data set [3] is described as follows: Clearance in rat at 2 mg/kg, iv. In kind it is ADME, organism-based. On the set-up: dose 2 mg/kg, route intravenous. The conditions noted are these: in vivo.
Data set [4] is described as follows: Volume of distribution at steady state in rat at 2 mg/kg, iv. Type of data set: ADME, organism-based. The conditions noted are these: in vivo, read-out: Vdss. On the set-up: dose 2 mg/kg, route intravenous.
Data set [5] concerns the target T1, Voltage-gated inwardly rectifying potassium channel KCNH2 (Homo sapiens, UniProt Q12809). Kind of data set: Inhibition of human ERG by patch clamp assay. (In patch-clamp work, channel activity is measured electrically.)
A short description of data set [6]: Half life in rat at 2 mg/kg, iv. In kind it is ADME, organism-based. Details: dose 2 mg/kg, route intravenous. The conditions noted are these: in vivo.
The species named for data set [7] is Mus musculus. The data set is described as follows: animal or person. As to conditions: Balb/c, 3 h, route oral. In kind it is functional.
The species named for data set [8] is Mus musculus. Kind of data set: animal or person. Type of data set: functional. The conditions noted are these: Balb/c, Blood, 3 h, route oral.
The species named for data set [9] is Mus musculus. Kind of data set: animal or person. In kind it is functional, organism-based. As to conditions: Balb/c, Blood.
The target of data set [10] is T2, Leukotriene A-4 hydrolase (Homo sapiens, UniProt P09960).
T2 sequence (P09960 whole entry): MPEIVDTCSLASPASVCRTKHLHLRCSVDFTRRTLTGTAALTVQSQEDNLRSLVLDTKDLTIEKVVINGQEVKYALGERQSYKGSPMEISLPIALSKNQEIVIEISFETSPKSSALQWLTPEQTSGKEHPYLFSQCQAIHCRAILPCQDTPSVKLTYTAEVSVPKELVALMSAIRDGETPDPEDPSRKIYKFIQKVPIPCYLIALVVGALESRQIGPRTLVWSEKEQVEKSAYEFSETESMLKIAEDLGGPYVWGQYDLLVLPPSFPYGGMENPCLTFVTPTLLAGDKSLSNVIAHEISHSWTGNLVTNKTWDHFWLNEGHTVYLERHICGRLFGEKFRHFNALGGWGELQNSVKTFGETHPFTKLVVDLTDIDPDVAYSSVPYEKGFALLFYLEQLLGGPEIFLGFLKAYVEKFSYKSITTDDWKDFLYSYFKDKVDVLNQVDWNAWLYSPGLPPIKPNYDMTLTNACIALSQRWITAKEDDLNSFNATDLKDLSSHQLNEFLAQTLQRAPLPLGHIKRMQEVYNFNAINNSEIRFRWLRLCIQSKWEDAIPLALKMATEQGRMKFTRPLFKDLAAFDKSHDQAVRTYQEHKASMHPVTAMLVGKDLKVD
Kind of data set: Inhibition of human recombinant LTA4 hydrolase expressed in SF9 cells using LTA4 as substrate assessed as LTB4 production incubated for 10 mins prior to substrate addition measured after 10 to 30 mins by enzyme immunoassay. Type of data set: cell-based.

For data set [11], the target named is T1, Voltage-gated inwardly rectifying potassium channel KCNH2. Kind of data set: Inhibition of dofetilide binding to human ERG by radioligand binding assay.

T1 sequence (Q12809 whole entry): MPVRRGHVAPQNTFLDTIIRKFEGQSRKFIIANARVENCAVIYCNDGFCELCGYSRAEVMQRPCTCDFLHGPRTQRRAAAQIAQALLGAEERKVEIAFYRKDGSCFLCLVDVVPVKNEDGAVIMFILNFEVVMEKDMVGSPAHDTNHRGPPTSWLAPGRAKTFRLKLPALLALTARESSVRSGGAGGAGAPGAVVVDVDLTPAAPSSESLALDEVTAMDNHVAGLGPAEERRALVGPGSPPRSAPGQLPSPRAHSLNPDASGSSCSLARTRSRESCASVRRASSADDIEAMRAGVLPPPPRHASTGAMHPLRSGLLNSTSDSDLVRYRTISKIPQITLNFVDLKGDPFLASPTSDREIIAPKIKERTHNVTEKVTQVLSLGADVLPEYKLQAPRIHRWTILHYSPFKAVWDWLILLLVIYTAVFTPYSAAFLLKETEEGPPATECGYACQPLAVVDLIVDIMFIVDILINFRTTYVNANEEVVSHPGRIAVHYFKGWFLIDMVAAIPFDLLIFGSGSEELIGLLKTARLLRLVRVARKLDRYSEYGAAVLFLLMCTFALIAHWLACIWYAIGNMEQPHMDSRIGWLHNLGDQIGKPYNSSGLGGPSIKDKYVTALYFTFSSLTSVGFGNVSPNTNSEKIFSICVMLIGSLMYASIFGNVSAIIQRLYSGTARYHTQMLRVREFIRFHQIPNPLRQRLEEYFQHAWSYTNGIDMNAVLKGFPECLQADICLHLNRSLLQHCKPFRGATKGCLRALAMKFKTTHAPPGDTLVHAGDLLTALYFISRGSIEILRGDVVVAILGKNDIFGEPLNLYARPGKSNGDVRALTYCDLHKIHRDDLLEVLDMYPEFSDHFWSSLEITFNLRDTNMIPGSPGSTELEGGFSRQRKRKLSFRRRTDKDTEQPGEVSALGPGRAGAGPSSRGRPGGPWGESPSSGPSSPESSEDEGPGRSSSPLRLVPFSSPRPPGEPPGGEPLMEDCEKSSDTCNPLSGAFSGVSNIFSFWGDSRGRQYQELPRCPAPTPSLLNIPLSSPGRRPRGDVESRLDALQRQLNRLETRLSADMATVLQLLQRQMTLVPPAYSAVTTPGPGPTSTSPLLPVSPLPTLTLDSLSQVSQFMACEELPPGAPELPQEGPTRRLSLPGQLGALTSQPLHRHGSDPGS

As for `CC(=O)N1CC2CC1CN2Cc1ccc(Oc2nc3ncccc3s2)cc1` (centres undefined), the Cmax in [1] amounted to 3300 nM. Also, the bioavailability in [2] was 125%. The same compound had a clearance in [3] of 7 mL/min/kg. In addition, the Vd in [4] was 1.4 L/kg. In addition, the IC50 in data set [5] was over 10000 nM; in data set [9], 7 nM; in data set [10], 5 nM; in data set [11] it was over 10000 nM. In [6], this compound showed a half-life of 3.3 h. Further, the inhibition in vivo at 30 mg/kg in data set [7] was determined as 88%; in data set [8], 92%.
For the compound `NC(=O)C1CCN(CCOc2ccc(Oc3nc4ncccc4s3)cc2)CC1`, the inhibition in vivo at 30 mg/kg in data set [7] worked out at 71%; in [8], 80%. Further, the IC50 in data set [9] was 30 nM; in data set [10] it was 16 nM; in data set [11], over 10000 nM.
`c1cnc2nc(Oc3ccc(OCCN4CCCCC4)cc3)sc2c1`: the inhibition in vivo at 30 mg/kg was determined as 62% in [7] and 65% in data set [8]. In addition, the IC50 was determined as 18 nM in data set [9] and 8 nM in data set [10].
Regarding `O=C1CCCN1C1CCN(CCOc2ccc(Oc3nc4ncccc4s3)cc2)CC1`, the IC50 in [5] was 2500 nM; in data set [9], 20 nM; in data set [10], 6 nM; in [11], over 10000 nM. Further, the inhibition in vivo at 30 mg/kg worked out at 76% in [7] and 89% in data set [8].
Consider `Cc1ccnc2nc(Oc3ccc(CN4CCCCC4)cc3)sc12`, for which the inhibition in vivo at 30 mg/kg in [7] was found to be 42%; in data set [8], 12%. In [9], half-maximal inhibition (IC50) was put at 82 nM.
Consider `c1cc2nc(Oc3ccc(CN4CCCCC4)cc3)sc2cn1`, for which the IC50 in [9] was 723 nM; in [10], 614 nM.
On to `CC(=O)NC1CC2CCC(C1)N2CCc1ccc(Oc2nc3ncccc3s2)cc1` (centres undefined), for which the inhibition in vivo at 30 mg/kg was found to be 78% in [7] and 85% in data set [8]. In data set [10], the IC50 is 0.3 nM.
In the case of `c1cnc2nc(Oc3ccc(CN4CCCCC4)cc3)sc2c1`, the inhibition in vivo at 30 mg/kg stood at 48% in data set [7] and 67% in [8]. In addition, the IC50 in [9] is 14 nM; in data set [10] it was 3 nM; in data set [11], over 10000 nM.
`c1cnc2nc(Oc3ccc(CCN4CCCCC4)cc3)sc2c1`: the inhibition in vivo at 30 mg/kg in [7] amounted to 36%; in [8], 70%. In addition, the IC50 was 24 nM in data set [9] and over 10000 nM in data set [11].
In the case of `CC(=O)N1CC2CN(Cc3ccc(Oc4nc5ncccc5s4)cc3)CC2C1` (centres undefined), the inhibition in vivo at 30 mg/kg amounted to 95% in data set [7] and 57% in data set [8]. The compound further came in with an IC50 in data set [9] of 10 nM.
For the compound `NC(=O)C1CCN(Cc2ccc(Oc3nc4cccnc4s3)cc2)CC1`, the IC50 worked out at 2040 nM in [9] and 733 nM in data set [10].
Turning to `CC(=O)N1CC2CC1CN2CCOc1ccc(Oc2nc3ncccc3s2)cc1` (centres undefined), the inhibition in vivo at 30 mg/kg in data set [7] was 72%; in data set [8] it was 84%. In addition, the concentration for half-maximal inhibition (IC50) is 18 nM in data set [9] and 7 nM in data set [10].
For `O=C1CCCN1C1CCN(CCc2ccc(Oc3nc4ncccc4s3)cc2)CC1`, the half-maximal inhibitory concentration (IC50) in data set [5] amounted to 2800 nM; in data set [9] it was 65 nM; in [10], 14 nM. Also, the inhibition in vivo at 30 mg/kg in [7] is 75%; in [8], 86%.
As to `c1cc2sc(Oc3ccc(CN4CCCCC4)cc3)nc2cn1`, the IC50 in [10] came to 1800 nM.
Consider `CC(=O)NC1CC2CCC(C1)N2Cc1ccc(Oc2nc3ncccc3s2)cc1` (centres undefined), for which the Cmax in [1] came to 1200 nM. In addition, in data set [2], the bioavailability worked out at 65%. This compound gave a clearance in data set [3] of 20 mL/min/kg. Besides, in data set [4], the Vd amounted to 3.5 L/kg. The half-life in data set [6] is 2 h. In addition, the figures for the inhibition in vivo at 30 mg/kg in [7] and in [8] were 70% and 81%, respectively. In addition, the IC50 turned out to be 20 nM in data set [9] and 1 nM in data set [10].
For the compound `O=C1CCCN1C1CCN(Cc2ccc(Oc3nc4ncccc4s3)cc2)CC1`, the IC50 in data set [5] was over 10000 nM; in data set [9], 27 nM; in [10], 6 nM; in [11], over 10000 nM. Besides, the inhibition in vivo at 30 mg/kg amounted to 88% in data set [7] and 81% in [8].
As to `CC(=O)N1CC2CN(CCOc3ccc(Oc4nc5ncccc5s4)cc3)CC2C1` (centres undefined), the inhibition in vivo at 30 mg/kg in data set [7] came out at 86%; in data set [8], 81%. In addition, the IC50 in data set [9] was 30 nM; in data set [10], 7 nM; in data set [11] it was over 10000 nM.
Take `NC(=O)C1CCN(Cc2ccc(Oc3nc4ncccc4s3)cc2)CC1`: the half-maximal inhibitory concentration (IC50) in [5] is over 10000 nM; in [9], 37 nM; in data set [10], 6 nM; in [11], 8900 nM. For the same compound, the inhibition in vivo at 30 mg/kg is 89% in data set [7] and 85% in data set [8].
`CC(=O)NC1CC2CCC(C1)N2CCOc1ccc(Oc2nc3ncccc3s2)cc1` (centres undefined): the inhibition in vivo at 30 mg/kg amounted to 74% in [7] and 85% in data set [8]. Moreover, the IC50 turned out to be 24 nM in data set [9] and 4 nM in [10].
`NC(=O)C1CCN(CCc2ccc(Oc3nc4ncccc4s3)cc2)CC1`: the figures for the inhibition in vivo at 30 mg/kg in data set [7] and in data set [8] were 60% and 76%, respectively. Also, the IC50 was 50 nM in [9], 11 nM in data set [10] and over 10000 nM in [11].
With `CC(=O)N1CC2CC1CN2CCc1ccc(Oc2nc3ncccc3s2)cc1` (centres undefined), the figures for the inhibition in vivo at 30 mg/kg in data set [7] and in data set [8] were 68% and 90%, respectively. Also, the concentration for half-maximal inhibition (IC50) worked out at 30 nM in data set [9] and 14 nM in data set [10].
Turning to `Clc1cnc2nc(Oc3ccc(CN4CCCCC4)cc3)sc2c1`, the values for the half-maximal inhibitory concentration (IC50) in [9] and in data set [11] were 245 nM and over 10000 nM, respectively.
Regarding `CC(=O)N1CC2CN(CCc3ccc(Oc4nc5ncccc5s4)cc3)CC2C1` (centres undefined), the inhibition in vivo at 30 mg/kg in [7] turned out to be 79%; in data set [8] it was 86%. The IC50 is 22 nM in [9], 6 nM in data set [10] and over 10000 nM in data set [11].

(Values after ChEMBL document CHEMBL2203039, “Azabenzthiazole inhibitors of leukotriene A₄ hydrolase” (Bioorg Med Chem Lett, 2012).)
